According to article PMC10752118 (Therapeutic Advances in Medical Oncology, 2023):

Columns and labels:
[1] = test system: treatment refractory HER2 over-expressing breast cancer; settings: in combination with weekly trastuzumab and paclitaxel, nine patients; cited from earlier work
[2] = Plasma PK, noncompartmental analysis; assay type: in vivo, human; settings: for observed clearance (CL), dose dependence: 1 h IV infusion
[3] = test system: P-glycoprotein (P-gp) multidrug transporter; settings: cited from earlier work
[4] = test system: patients with advanced TNBC; test: Phase Ib 3 + 3 dose escalation: DLT assessment, MTD and RP2D; assay type: in vivo, human
HSP90 = settings: read-out: dissociation constant (Kd); cited from earlier work
[5] = prior single-agent study; cited from earlier work
[6] = test system: uridine diphosphate-glucoronosyltransferases; settings: cited from earlier work
[7] = cited from earlier work
[8] = Day 1 (no onalespib), 80 mg/m^2 paclitaxel IV, DL1, geometric mean ± SD
[9] = Day 1 (no onalespib), 80 mg/m^2 paclitaxel IV, DL2, geometric mean ± SD
[10] = Day 1 (no onalespib), 80 mg/m^2 paclitaxel IV, DL3, geometric mean ± SD
[11] = Day 1 (no onalespib), 80 mg/m^2 paclitaxel IV, DL4, geometric mean ± SD
[12] = Day 7 (no paclitaxel), DL1, onalespib 120 mg/m^2 IV, geometric mean ± SD
[13] = Day 7 (no paclitaxel), DL2, onalespib 150 mg/m^2 IV, geometric mean ± SD
[14] = Day 7 (no paclitaxel), DL3, onalespib 200 mg/m^2 IV, geometric mean ± SD
[15] = Day 7 (no paclitaxel), DL4, onalespib 260 mg/m^2 IV, geometric mean ± SD
[16] = Day 8 (with 80 mg/m^2 paclitaxel), DL1, onalespib 120 mg/m^2 IV, geometric mean ± SD
[17] = Day 8 (with 80 mg/m^2 paclitaxel), DL2, onalespib 150 mg/m^2 IV, geometric mean ± SD
[18] = Day 8 (with 80 mg/m^2 paclitaxel), DL3, onalespib 200 mg/m^2 IV, geometric mean ± SD
[19] = Day 8 (with 80 mg/m^2 paclitaxel), DL4, onalespib 260 mg/m^2 IV, geometric mean ± SD

CC(C)c1cc(-c2n[nH]c(=O)n2-c2ccc3c(ccn3C)c2)c(O)cc1O [ganetespib]
partial response [1]: 22% | stable disease [1]: 56%

CC(=O)O[C@H]1C(=O)[C@@]2(C)[C@H]([C@H](OC(=O)c3ccccc3)[C@]3(O)C[C@H](OC(=O)[C@H](O)[C@@H](NC(=O)c4ccccc4)c4ccccc4)C(C)=C1C3(C)C)[C@]1(OC(C)=O)CO[C@@H]1C[C@@H]2O [paclitaxel]
observed clearance (CL), dose dependence [2]: independent of dose | CL [2, 8]: 12.6 ± 2.63 L/h/m^2 | Vz [2, 8]: 279 ± 41.9 L/m^2 | AUCinf [2, 9]: 5.59 ± 0.185 µM·h | CL [2, 9]: 16.8 ± 0.535 L/h/m^2 | Cmax [2, 9]: 4.17 ± 0.299 µM | Vz [2, 9]: 216 ± 19.3 L/m^2 | CL [2, 10]: 15.3 ± 4.77 L/h/m^2 | Cmax [2, 10]: 4.45 ± 2.28 µM | Vz [2, 10]: 206 ± 89.8 L/m^2 | CL [2, 11]: 11.9 ± 2.78 L/h/m^2 | Cmax [2, 11]: 4.68 ± 1.82 µM | Vz [2, 11]: 181 ± 46.0 L/m^2 | t1/2 ([2]; Day 8, 80 mg/m^2 paclitaxel IV with onalespib 120 mg/m^2, DL1, median (range)): 15.0 (13.1–15.4) h | AUC(0-inf) ([2]; human, plasma, intravenous, 80 mg/m^2, Mean AUCinf, range across DLs, single agent, cycle 1, day 1, 80 mg/m^2): 5.59 to 7.75 µM·h | Cmax ([2]; human, plasma, intravenous, 80 mg/m^2, Mean Cmax, range across DLs, single agent, cycle 1, day 1, 80 mg/m^2): 3.87 to 4.68 µM | AUC(0-inf) ([2]; human, plasma, intravenous, mean AUCinf, range across all four DLs, cycle 1, day 8, 80 mg/m^2 in combination with onalespib): 6.5 to 8.72 µM·h | Cmax ([2]; human, plasma, intravenous, mean Cmax, range across all four DLs, cycle 1, day 8, 80 mg/m^2 in combination with onalespib): 2.99 to 4.23 µM | AUC(0-inf) ([2]; human, plasma, iv, 80 mg/m2, AUCinf, Day 1 (no onalespib), 80 mg/m^2 paclitaxel IV, DL1, geometric mean ± SD): 7.44 ± 1.54 µM·h | AUC(0-inf) ([2]; human, plasma, iv, 80 mg/m2, AUCinf, Day 1 (no onalespib), 80 mg/m^2 paclitaxel IV, DL3, geometric mean ± SD): 6.1 ± 2.24 µM·h | AUC(0-inf) ([2]; human, plasma, iv, 80 mg/m2, AUCinf, Day 1 (no onalespib), 80 mg/m^2 paclitaxel IV, DL4, geometric mean ± SD): 7.75 ± 1.75 µM·h | half-life ([2]; human, plasma, iv, 80 mg/m2, t1/2, Day 1 (no onalespib), 80 mg/m^2 paclitaxel IV, DL2, median (range)): 9.18 h | half-life ([2]; human, plasma, iv, 80 mg/m2, t1/2, Day 1 (no onalespib), 80 mg/m^2 paclitaxel IV, DL3, median (range)): 9.06 h | half-life ([2]; human, plasma, iv, 80 mg/m2, t1/2, Day 1 (no onalespib), 80 mg/m^2 paclitaxel IV, DL4, median (range)): 10.6 h | AUC(0-inf) ([2]; human, plasma, iv, AUCinf, Day 8, 80 mg/m^2 paclitaxel IV with onalespib 120 mg/m^2, DL1, geometric mean ± SD): 7.97 ± 2.95 µM·h | AUC(0-inf) ([2]; human, plasma, iv, AUCinf, Day 8, 80 mg/m^2 paclitaxel IV with onalespib 200 mg/m^2, DL3, geometric mean ± SD): 6.47 ± 2.18 µM·h | AUC(0-inf) ([2]; human, plasma, iv, AUCinf, Day 8, 80 mg/m^2 paclitaxel IV with onalespib 260 mg/m^2, DL4, geometric mean ± SD): 8.72 ± 2.54 µM·h | Cmax ([2]; human, plasma, iv, Cmax, Day 8, 80 mg/m^2 paclitaxel IV with onalespib 120 mg/m^2, DL1, geometric mean ± SD): 2.99 ± 3.59 µM | Cmax ([2]; human, plasma, iv, Cmax, Day 8, 80 mg/m^2 paclitaxel IV with onalespib 200 mg/m^2, DL3, geometric mean ± SD): 4.23 ± 2.18 µM | half-life ([2]; human, plasma, iv, t1/2, Day 8, 80 mg/m^2 paclitaxel IV with onalespib 200 mg/m^2, DL3, median (range)): 8.67 h | half-life ([2]; human, plasma, iv, t1/2, Day 8, 80 mg/m^2 paclitaxel IV with onalespib 260 mg/m^2, DL4, median (range)): 10.7 h | interaction with P-gp [3]: substrate for MDR1 P-gp

CC(C)c1cc(C(=O)N2Cc3ccc(CN4CCN(C)CC4)cc3C2)c(O)cc1O [onalespib, (2,4-dihydroxy-5-isopropylphenyl)-[5-(4-methylpiperazin-1-ylmethyl)-1,3-dihydroisoindol-2-yl]methanone]
MTD of onalespib ([4]; combined with paclitaxel 80 mg/m^2, IV days 1, 8, 15 of 28-day cycle): 260 mg/m^2 | RP2D of onalespib ([4]; given with paclitaxel 80 mg/m^2, IV days 1, 8, 15 of 28-day cycle): 260 mg/m^2 | exposure (AUCinf and Cmax), dose proportionality ([2]; 120 to 260 mg/m^2): approximately dose-proportional | observed clearance (CL), dose dependence [2]: independent of dose | CL [2, 12]: 42.6 ± 4.99 L/h/m^2 | Vz [2, 12]: 344 ± 134 L/m^2 | CL [2, 13]: 51.1 ± 4.37 L/h/m^2 | Vz [2, 13]: 443 ± 23.2 L/m^2 | CL [2, 14]: 48.4 ± 29.2 L/h/m^2 | Vz [2, 14]: 522 ± 273 L/m^2 | CL [2, 15]: 41.6 ± 10.0 L/h/m^2 | Vz [2, 15]: 427 ± 102 L/m^2 | CL [2, 16]: 47.9 ± 2.03 L/h/m^2 | Vz [2, 16]: 730 ± 121 L/m^2 | CL [2, 17]: 64.3 ± 21.0 L/h/m^2 | Vz [2, 17]: 801 ± 263 L/m^2 | CL [2, 18]: 51.4 ± 14.8 L/h/m^2 | Vz [2, 18]: 717 ± 282 L/m^2 | CL [2, 19]: 45.2 ± 13.4 L/h/m^2 | Vz [2, 19]: 598 ± 208 L/m^2 | effect of combination with paclitaxel on overall exposure (AUCinf and Cmax) ([2]; cycle 1 day –7 versus day 8): no apparent changes in overall exposure | AUC(0-inf) ([2]; human, plasma, intravenous, AUCinf, range, single agent, cycle 1, day –7, all DLs (120 to 260 mg/m^2)): 4.3 to 22.7 µM·h | half-life ([2]; human, plasma, intravenous, mean t1/2, range across DLs, as a single agent only): 6.04 to 7.32 h | AUC(0-inf) ([2]; human, plasma, iv, 120 mg/m2, AUCinf, Day 7 (no paclitaxel), DL1, onalespib 120 mg/m^2 IV, geometric mean ± SD): 6.72 ± 0.688 µM·h | Cmax ([2]; human, plasma, iv, 120 mg/m2, Cmax, Day 7 (no paclitaxel), DL1, onalespib 120 mg/m^2 IV, geometric mean ± SD): 2.8 ± 0.844 µM | half-life ([2]; human, plasma, iv, 120 mg/m2, t1/2, Day 7 (no paclitaxel), DL1, onalespib 120 mg/m^2 IV, median (range)): 7.23 h | AUC(0-inf) ([2]; human, plasma, iv, 200 mg/m2, AUCinf, Day 7 (no paclitaxel), DL3, onalespib 200 mg/m^2 IV, geometric mean ± SD): 10 ± 4.35 µM·h | Cmax ([2]; human, plasma, iv, 200 mg/m2, Cmax, Day 7 (no paclitaxel), DL3, onalespib 200 mg/m^2 IV, geometric mean ± SD): 3.21 ± 2.56 µM | half-life ([2]; human, plasma, iv, 200 mg/m2, t1/2, Day 7 (no paclitaxel), DL3, onalespib 200 mg/m^2 IV, median (range)): 7.32 h | AUC(0-inf) ([2]; human, plasma, iv, 260 mg/m2, AUCinf, Day 7 (no paclitaxel), DL4, onalespib 260 mg/m^2 IV, geometric mean ± SD): 15.2 ± 3.84 µM·h | Cmax ([2]; human, plasma, iv, 260 mg/m2, Cmax, Day 7 (no paclitaxel), DL4, onalespib 260 mg/m^2 IV, geometric mean ± SD): 5.36 ± 2.8 µM | half-life ([2]; human, plasma, iv, 260 mg/m2, t1/2, Day 7 (no paclitaxel), DL4, onalespib 260 mg/m^2 IV, median (range)): 6.83 h | AUC(0-inf) ([2]; human, plasma, iv, AUCinf, Day 8 (with 80 mg/m^2 paclitaxel), DL1, onalespib 120 mg/m^2 IV, geometric mean ± SD): 6.1 ± 0.244 µM·h | AUC(0-inf) ([2]; human, plasma, iv, AUCinf, Day 8 (with 80 mg/m^2 paclitaxel), DL2, onalespib 150 mg/m^2 IV, geometric mean ± SD): 5.64 ± 2.32 µM·h | AUC(0-inf) ([2]; human, plasma, iv, AUCinf, Day 8 (with 80 mg/m^2 paclitaxel), DL3, onalespib 200 mg/m^2 IV, geometric mean ± SD): 9.46 ± 2.24 µM·h | AUC(0-inf) ([2]; human, plasma, iv, AUCinf, Day 8 (with 80 mg/m^2 paclitaxel), DL4, onalespib 260 mg/m^2 IV, geometric mean ± SD): 14 ± 4.66 µM·h | Cmax ([2]; human, plasma, iv, Cmax, Day 8 (with 80 mg/m^2 paclitaxel), DL1, onalespib 120 mg/m^2 IV, geometric mean ± SD): 2.74 ± 0.676 µM | Cmax ([2]; human, plasma, iv, Cmax, Day 8 (with 80 mg/m^2 paclitaxel), DL2, onalespib 150 mg/m^2 IV, geometric mean ± SD): 2.41 ± 1.03 µM | Cmax ([2]; human, plasma, iv, Cmax, Day 8 (with 80 mg/m^2 paclitaxel), DL3, onalespib 200 mg/m^2 IV, geometric mean ± SD): 4.64 ± 2.64 µM | Cmax ([2]; human, plasma, iv, Cmax, Day 8 (with 80 mg/m^2 paclitaxel), DL4, onalespib 260 mg/m^2 IV, geometric mean ± SD): 5.53 ± 4.5 µM | half-life ([2]; human, plasma, iv, t1/2, Day 8 (with 80 mg/m^2 paclitaxel), DL1, onalespib 120 mg/m^2 IV, median (range)): 10.5 h | half-life ([2]; human, plasma, iv, t1/2, Day 8 (with 80 mg/m^2 paclitaxel), DL2, onalespib 150 mg/m^2 IV, median (range)): 8.55 h | half-life ([2]; human, plasma, iv, t1/2, Day 8 (with 80 mg/m^2 paclitaxel), DL3, onalespib 200 mg/m^2 IV, median (range)): 9.62 h | half-life ([2]; human, plasma, iv, t1/2, Day 8 (with 80 mg/m^2 paclitaxel), DL4, onalespib 260 mg/m^2 IV, median (range)): 9.11 h | Kd (HSP90): 0.71 nM | maximum tolerated dose [5]: 260 mg/m^2 | interaction with P-gp [3]: substrate and moderate inhibitor of P-gp | glucuronidation substrate status [6]: substrate for glucuronidation | water solubility [7]: High water solubility
